{"source": "paper PMC4581228", "about": "“Membrane Affinity of Platensimycin and Its Dialkylamine Analogs” (International Journal of Molecular Sciences, 2015)", "key": {"[1]": {"tested_on": "WT MscS in the cytoplasmic membrane of E. coli", "assay": "Patch-clamp of WT MscS in excised spheroplast patches (activation midpoint shift)", "settings": "cytoplasmic addition of 0.6 mM, six independent patches", "description": "We explored the A98S gain-of-function mutant of MscS and found it to be a more suitable sensor. In pressure ramp experiments this mutant activates earlier, but apparently has the same tension dependency of inactivation as WT [20]. […] The serine-for-alanine substitution hydrophilizes the outer portion of the hydrophobic pore. As a result, the remaining hydrophobic region is localized to the cytoplasmic portion of the pore, placing the gate more asymmetrically relative to the mid-plane of the bilayer. […] We tested this mutant against WT with a cytoplasmic addition of 0.6 mM paraben, which has been characterized previously. The typical activation curves (open probability vs. pipette pressure) measured with pipettes of equal size for the two channels are shown in Figure 2. Not only is the absolute shift of activating pressure (p0.5) greater for A98S, but the percentage of midpoint shift relative to the original midpoint averaged for six independent patches was 41% ± 6% for the mutant vs. 14% ± 4% for WT. […]\nSpheroplasts were generated as described previously. […] Membrane patches were obtained on borosilicate glass pipettes and recorded at 30 mV pipette voltage set by a microelectrode amplifier. The midpoint of activation for channels in each patch was determined at two-minute intervals for the duration of the experiment via a 1 s ramp of saturating pressure. […]"}, "[2]": {"tested_on": "A98S MscS in the cytoplasmic membrane of E. coli", "assay": "Patch-clamp of A98S MscS in excised spheroplast patches (activation midpoint shift)", "method": "A pB10b vector was used to house and express the mscS gene in the triple-knockout E. coli strain MJF465 (mscS^−, mscL^−, mscK^−). The A98S MscS mutant, generated and partially characterized previously, was chosen for its higher sensitivity to inner leaflet drug partitioning.\nSpheroplasts were generated as described previously. The experimental bath solution contained 400 mM sucrose, 200 mM KCl, 50 mM MgCl2, 5 mM CaCl2, and 5 mM HEPES and was titrated to pH 7.4 with KOH. Membrane patches were obtained on borosilicate glass pipettes and recorded at 30 mV pipette voltage set by a microelectrode amplifier. The midpoint of activation for channels in each patch was determined at two-minute intervals for the duration of the experiment via a 1 s ramp of saturating pressure. Analogs of platensimycin were pre-diluted in either ethanol or bath solution and perfused into the bath to achieve the desired concentration; control injections of equivalent volumes of ethanol had no effect on the midpoint of activation. Negative pressure (suction) was applied with the HSPC-1 high speed pressure clamp apparatus from ALA Scientific. Programming of the pressure protocols and data analysis was performed with the PClamp10 suite (Axon Instr., Foster City, CA, USA). The principle of lateral pressure measurements using two experimental systems, lipid monolayers and patch-clamp, is illustrated in Figure 1.\nSimilarly, the bulk-membrane partitioning coefficient (Kmem) was estimated from the values of relative increase in MscS activation pressure midpoint (p0.5) measured in patch-clamp experiments at different concentrations of intercalating agents by linear fit of Δp0.5 as a function of log(Cd)."}, "[3]": {"tested_on": "Bacillus subtilis", "settings": "cited from earlier work"}, "[4]": {"tested_on": "E. faecium, VRE", "set-up": "method as in PMID 17707686", "settings": "Gram-positive; cited from earlier work"}, "[5]": {"assay": "Langmuir monolayer pressure-area isotherms", "format": "physicochemical, E. coli", "method": "All Langmuir monolayer experiments were done with a two-barrier rectangular 22 cm × 6 cm trough (MicroTrough XS, Kibron Inc., Helsinki, Finland) placed in an Airclean hood. A Dyneprobe metal alloy needle was used as the Wilhelmy plate. Lipids used were E. coli total polar lipid extract from Avanti Polar Lipids (Alabaster, AL, USA) dissolved in chloroform or hexane to a final concentration of 0.2 mg/mL. Distribution of lipids onto the subphase was accomplished using a gastight 50 µL Hamilton® syringe (Hamilton, Reno, NV, USA). The subphase buffer was identical to the tensiometry buffer. Pressure—Area isotherms (monolayers) were performed at room temperature (~20 °C) from 114 to 18 cm^2 at a barrier rate of 20 mm/min. For each analog, isotherms were measured at least four times at every concentration.\nIn Langmuir experiments, the value of the bulk-monolayer (Klip) partitioning coefficient was determined in a similar way, using the deviations of surface pressure of monolayers measured at constant area. […] However, at this compression, strongly intercalating substances produced pressure shifts beyond the collapse pressure of 45–47 mN/m, which forced us to score Δπ from surface pressure of 20 mN/m achieved at ~80 Å^2/molecule. Klip1 obtained in this expanded state was than corrected for the lateral pressure increase from π1 = 20 to π2 = 35 mN/m, which has the same form as Equation (7) in [5]: (6) ln(Klip2)=ln(Klip1)−(π2−π1)adNA/RT\nHere ad is the area taken by the drug in the plane of the monolayer.\nTo estimate ad we assumed equilibrium between the drug in the subphase and in the monolayer and equated its chemical potentials in the two phases: (7) μ0+RTln(χd)=μ0σ+RTln(χdσ)+π⋅adNA\nThe right part with indexes σ represents the surface parameters of standard chemical potential µ0σ and drug mole fraction χdσ , whereas the left part represents the bulk parameters. Defining lnKlip = µ0σ −µ0 one can rearrange this equation as (8) lnKlip−lnχdσ−lnχd=π⋅adNA/RT\nDifferentiating with respect to π gives (9) −RTd(lnχdσ)/NAdπ=ad\nThus the molecular area of the drug defines the slope of χdσ , with which the drug re-partitions back to the subphase as surface pressure π increases. We further assume that at a given surface pressure, insertion of nd drug molecules into the film comprised of nL lipid molecules with initial area A0, should dilate the film by ΔA. (10) nd/nL=ΔA/A0⋅aL/ad\nThe parameter aL, the area per lipid at that particular pressure, is taken from the control pressure-area isotherm with no drug. The mole fraction of the drug in the monolayer χdσ = nd/(nd + nL) is related to the extent of monolayer dilation ΔA (11) ΔA=ad⋅nd=adnL⋅χdσ/1−χdσ\nOn the assumption that χdσ is small, ΔA is proportional to the mole fraction of the drug. In Equation (4) we substitute and obtain (12) −kTd(lnΔA)/dπ=ad\nThus, the molecular area of the drug can be determined from the logarithmic slope of ΔA on surface pressure. Once we know ad, we can introduce a correction to Klip due to lateral pressure change ([…]). In addition, we can estimate the molar ratio of drug-to-lipid, the mole fraction χdσ and the partitioning constant. From the extent of monolayer dilation at a constant surface pressure (chosen to be 20 mN/m), the apparent bulk-monolayer partitioning coefficient Klip could be independently estimated as Klip=χdσ/χd , where […] = Cd/55 represents the drug mole fraction in the subphase."}, "[6]": {"tested_on": "S. aureus, MRSA", "set-up": "method as in PMID 17707686", "settings": "Gram-positive; cited from earlier work"}, "[7]": {"assay": "Tensiometry at the air-water interface (Wilhelmy method)", "format": "physicochemical", "settings": "air-water partitioning coefficient, tensiometry, buffer pH 7.4", "method": "Surface tensions of subphase solutions with varying concentrations of platensimycin analogs were quantified using the Wilhelmy method with a piece of filter paper (Whatman, No. 1, 10.5 mm wide and 0.25 mm thick) used as a probe. The subphase buffer consisted of 200 mM KCl, 10 mM MgCl2, 5 mM CaCl2, 5 mM HEPES (Sigma-Aldrich, St. Louis, MO, USA) titrated to a pH of 7.4 with KOH. The pressure sensor (model 601, NIMA, Coventry, UK) was calibrated using a 100 mg weight. Water surface tension was measured to be […], after calibration. […] The surface activity and values for molecular area at the surface of the air-water interface (As), the partition coefficient at the air-water interface of the surface active molecule (KAW), and the membrane partitioning coefficient (Kmem), were determined as described previously.\nThe analysis of interfacial adsorption data was performed in the general framework of the Gibbs equation (1) dπ=∑Γidμi where dπ represents a small change in surface pressure, Γi is surface excess of component i and dμi is the small change of chemical potential of that component in the aqueous phase. For one adsorbing component, in an ideal case the Gibbs isotherm takes the form (2) dπ=RTΓd ln C where surface excess is defined as the surface density of molecules Γ = 1/(NAaS), NA is Avogadro’s number and aS is the area requirement for the molecule at the surface. The adsorbing substance gradually saturates the surface; the process that can be approximated by a Langmuir isotherm: (3) Γ=Γ∞lnKAW⋅C/1+KAW⋅C\nThus, beyond a certain bulk concentration, Γ approaches a constant value of Γ∞ and in that range of concentrations a linear relationship holds: (4) Γ∞=(1/RT)dπ/d ln C\nTo evaluate the partition coefficient for an air-water interface (KAW) and monolayers (Klip), the integral form of this equation attributed to Szyszkowski and previously applied to monolayers by Seelig and coworkers was used: (5) π=RTΓ∞ln(KAWC+1)\nAs was shown in Suomolainen 2004 [5], the x-intercept of the fitting line of experimental π-lnC curve would approximate the inverse partitioning coefficient 1/KAW, measured at the air-water interface."}, "[8]": {"tested_on": "E. coli", "set-up": "method as in PMID 17707686", "settings": "Gram-negative; only when co-administered with Phe-Arg-β-naphthylamide dihydrochloride (PAβND), efflux pump inhibitor; cited from earlier work"}}}
{"smiles": "CCCCOC(=O)c1ccc(O)cc1", "note": "[paraben, butyl paraben, reference compound]", "values": [{"measurement": "Percentage of midpoint shift relative to the original midpoint", "setting": "[1]", "value": "14% ± 4%"}, {"measurement": "Percentage of midpoint shift relative to the original midpoint", "setting": "[2]; A98S MscS, cytoplasmic addition of 0.6 mM, six independent patches", "value": "41% ± 6%"}]}
{"smiles": "CC1(C)C2CC=C(CN(CCC(=O)Nc3c(O)ccc(C(=O)O)c3O)CC3=CCC4CC3C4(C)C)C1C2", "note": "[QD-11, myrtemycin]", "values": [{"measurement": "Activity against B. subtilis", "setting": "[3]; Gram-positive", "value": "active"}, {"measurement": "MIC for B. subtilis", "setting": "[3]; cultures of Bacillus subtilis, ref 22 (table title)", "value": 4, "unit": "µg/mL"}, {"measurement": "Activity against E. faecium, VRE", "setting": "[4]", "value": "active"}, {"measurement": "Concentration in the subphase at which presence is detectable on isotherms", "setting": "[5]", "value": "10^−7 M"}, {"measurement": "log Klip @ 20 mN/m, Measured", "setting": "[5]; E. coli polar lipid monolayer, 20 mN/m, pH 7.4, ~20 °C", "value": 6.7}, {"measurement": "Effective Molec. Area (ad)", "setting": "[5]; area taken by the drug in the monolayer, from slopes of log(ΔArea) vs. surface pressure", "value": 31, "unit": "Å^2"}, {"measurement": "log Klip @ 35 mN/m, Corrected", "setting": "[5]; corrected to the monolayer-bilayer equivalence pressure 35 mN/m (Equation 6)", "value": 6.2}, {"measurement": "Initial unilateral insertion into the membrane relative to flipping across the membrane", "setting": "[2]; sequential additions", "value": "five to six times faster"}, {"measurement": "log Kmem (patch-clamp)", "setting": "[2]; x-intercept of midpoint shift (∆p0.5) vs. concentration, native E. coli membrane, cytoplasmic side", "value": 5.7}, {"measurement": "Activity against S. aureus, MRSA", "setting": "[6]", "value": "active"}, {"measurement": "log KAW (tens.)", "setting": "[7]", "value": 6.1}, {"measurement": "Activity against E. coli", "setting": "[8]", "value": "active"}]}
